In BindingDB's records for doi:10.1124/mol.57.3.642 (National Institute On Drug Abuse, 2000):
Counter-ions that a name gives are not always drawn.

Columns and labels:
[1] = target: Nicotinic acetylcholine receptor (Rattus leucopus, UniProt Q62594)
[2] = target: Neuronal acetylcholine receptor subunit alpha-7 (Rattus norvegicus, UniProt Q05941)
[3] = target: Neuronal acetylcholine receptor subunit alpha-4 (Rattus norvegicus, UniProt P09483)
[4] = target: Neuronal acetylcholine receptor subunit alpha-9 (Rattus norvegicus, UniProt P43144)
[5] = target: Neuronal acetylcholine receptor subunit alpha-3 (Rattus norvegicus, UniProt P04757)
Sequence of Neuronal acetylcholine receptor subunit alpha-3 (P04757 whole entry): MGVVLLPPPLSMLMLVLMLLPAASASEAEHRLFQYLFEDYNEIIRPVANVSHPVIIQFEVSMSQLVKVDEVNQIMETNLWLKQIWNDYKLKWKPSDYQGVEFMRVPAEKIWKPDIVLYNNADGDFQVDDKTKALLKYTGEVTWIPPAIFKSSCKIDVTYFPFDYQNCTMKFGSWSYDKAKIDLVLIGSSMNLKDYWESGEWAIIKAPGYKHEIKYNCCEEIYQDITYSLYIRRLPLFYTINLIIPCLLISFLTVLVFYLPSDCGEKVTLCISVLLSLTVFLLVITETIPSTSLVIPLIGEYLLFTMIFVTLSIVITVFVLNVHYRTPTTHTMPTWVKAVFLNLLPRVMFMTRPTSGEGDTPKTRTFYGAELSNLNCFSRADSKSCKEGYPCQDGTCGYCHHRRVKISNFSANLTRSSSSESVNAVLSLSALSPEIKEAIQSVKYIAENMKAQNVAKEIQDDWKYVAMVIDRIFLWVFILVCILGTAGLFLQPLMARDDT

Sequence of Neuronal acetylcholine receptor subunit alpha-7 (Q05941 whole entry): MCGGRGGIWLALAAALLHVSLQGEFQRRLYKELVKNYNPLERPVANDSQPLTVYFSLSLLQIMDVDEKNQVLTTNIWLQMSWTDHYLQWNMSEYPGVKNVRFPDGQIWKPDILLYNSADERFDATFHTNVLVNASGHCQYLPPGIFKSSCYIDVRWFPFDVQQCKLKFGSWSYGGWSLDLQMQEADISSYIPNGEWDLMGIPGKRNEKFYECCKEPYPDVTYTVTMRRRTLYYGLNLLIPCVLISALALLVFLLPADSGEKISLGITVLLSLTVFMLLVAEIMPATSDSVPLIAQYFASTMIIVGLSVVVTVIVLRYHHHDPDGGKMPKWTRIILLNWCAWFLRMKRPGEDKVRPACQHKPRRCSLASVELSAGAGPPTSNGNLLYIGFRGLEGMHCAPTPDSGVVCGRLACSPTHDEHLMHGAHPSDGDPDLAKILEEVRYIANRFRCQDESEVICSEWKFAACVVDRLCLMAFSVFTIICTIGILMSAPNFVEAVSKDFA
Sequence of Neuronal acetylcholine receptor subunit alpha-4 (P09483 whole entry): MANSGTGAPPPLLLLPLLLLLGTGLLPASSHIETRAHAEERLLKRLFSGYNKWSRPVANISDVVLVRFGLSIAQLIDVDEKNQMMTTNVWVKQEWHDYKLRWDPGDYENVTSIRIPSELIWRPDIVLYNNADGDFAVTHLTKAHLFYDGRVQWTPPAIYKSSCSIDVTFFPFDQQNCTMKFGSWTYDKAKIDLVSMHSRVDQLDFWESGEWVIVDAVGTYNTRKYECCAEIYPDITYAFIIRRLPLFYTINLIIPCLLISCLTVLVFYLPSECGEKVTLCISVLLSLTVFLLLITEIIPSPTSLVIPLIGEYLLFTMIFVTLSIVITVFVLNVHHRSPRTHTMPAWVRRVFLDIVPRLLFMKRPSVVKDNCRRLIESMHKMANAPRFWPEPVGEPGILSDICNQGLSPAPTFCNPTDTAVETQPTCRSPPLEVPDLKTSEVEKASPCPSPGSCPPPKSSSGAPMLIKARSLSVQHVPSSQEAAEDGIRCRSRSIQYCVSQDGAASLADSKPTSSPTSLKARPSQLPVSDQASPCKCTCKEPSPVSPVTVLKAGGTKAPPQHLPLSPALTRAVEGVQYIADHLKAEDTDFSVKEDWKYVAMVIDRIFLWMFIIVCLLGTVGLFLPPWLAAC
Sequence of Nicotinic acetylcholine receptor (Q62594 whole entry): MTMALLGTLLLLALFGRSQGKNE
Sequence of Neuronal acetylcholine receptor subunit alpha-9 (P43144 whole entry): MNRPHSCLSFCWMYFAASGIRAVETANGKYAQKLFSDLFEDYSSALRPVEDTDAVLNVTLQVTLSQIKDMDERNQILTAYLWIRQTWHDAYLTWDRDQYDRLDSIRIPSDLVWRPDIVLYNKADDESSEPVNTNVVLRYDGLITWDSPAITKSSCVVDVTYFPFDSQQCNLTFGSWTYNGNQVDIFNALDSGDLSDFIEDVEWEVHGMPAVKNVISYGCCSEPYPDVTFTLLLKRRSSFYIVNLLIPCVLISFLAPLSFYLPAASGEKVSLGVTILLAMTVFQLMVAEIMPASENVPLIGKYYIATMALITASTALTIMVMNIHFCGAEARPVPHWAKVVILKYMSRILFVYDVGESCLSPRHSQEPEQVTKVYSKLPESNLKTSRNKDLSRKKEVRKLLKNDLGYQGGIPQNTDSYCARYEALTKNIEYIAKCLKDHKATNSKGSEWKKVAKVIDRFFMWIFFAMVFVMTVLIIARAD

Row | Structure (SMILES) | Ki [1] [nM] | Ki [2] [nM] | Ki [3] [nM] | Ki [4] [nM] | Ki [5] [nM]
1 | CNC(=O)Oc1ccc2c(c1)[C@]1(C)CCN(C)C1N2C (stereo partly drawn) | > 10000 | – | – | – | –
2 | c1cncc(OC[C@@H]2CCN2)c1 | – | 17 | 0.01 | 320 | –
3 | C=C(C=O)C[C@H]1C[C@H](O)[C@]2(C)O[C@@H]3C[C@@H]4O[C@@H]5C[C@]6(C)O[C@]7(C)CC[C@@H]8O[C@@H]9C[C@]%10(C)O[C@@H]%11C(C)=CC(=O)O[C@H]%11C[C@H]%10O[C@H]9C[C@@H](C)[C@H]8O[C@H]7C[C@H]6O[C@@]5(C)C/C=C\[C@H]4O[C@H]3C[C@H]2O1 | 2500 | – | – | – | –
4 | O=C(CCCN1CCC(O)(c2ccc(Cl)cc2)CC1)c1ccc(F)cc1 [4-[4-(4-Chloro-phenyl)-4-hydroxy-piperidin-1-yl]-1-(4-fluoro-phenyl)-butan-1-one;propionate(HCl)] | > 10000 | – | – | – | –
5 | O=c1cccc2n1C[C@H]1CNC[C@H]2C1 [(1S,9R)-7,11-diazatricyclo[7.3.1.0~2,7~]trideca-2,4-dien-6-one] | – | 260 | 0.18 | 190 | 54
6 | CN1CCc2cccc3c2[C@H]1Cc1ccc(O)c(O)c1-3 [APOKYN] | > 10000 | – | – | – | –
7 | CN1[C@@H]2CC[C@H]1CC(OC(=O)[C@H](CO)c1ccccc1)C2 (stereo partly drawn) [CAS_51-55-8] | > 10000 | – | – | – | –
8 | COc1cc2c3cc1Oc1cc(ccc1O)CC1c4c(cc(OC)c(O)c4Oc4ccc(cc4)CC3[N+](C)(C)CC2)CC[N+]1(C)C (stereo not drawn) [CAS_8063-06-7] | 730 | – | – | – | –
9 | Ic1ccc(C2CC3CCC2N3)cn1 (stereo not drawn) [IPH] | – | 30 | 0.02 | 6.5 | 0.11
10 | C=CCN1CC[C@]23c4c5ccc(O)c4O[C@H]2C(=O)CC[C@@]3(O)[C@H]1C5 [[17-(2,3-3H-2-propenyl)]-4,5a-epoxy-3,14-dihydroxymorphinan-6-one] | > 10000 | – | – | – | –
